Source: patent EP1144368B1, “ACETYLENIC ALPHA-AMINO ACID-BASED SULFONAMIDE HYDROXAMIC ACID TACE INHIBITORS” (priority 1999, dated 2000)
Where a name gives a salt, the structure may show the parent alone. Read-outs that look alike come from different tables or passages of the source.

System: THP-1 cells
Assay: THP-1 Soluble Protein Assay (LPS-stimulated; ELISA of TNF-a, TNF-R p75/80, TNF-R p55/60, IL-8)
Format: cell-based, human
Conditions: Homo sapiens
[1] = THP-1, read-out: THP % inhibition @ 3 µM, 3 µM
[2] = THP-1, 3 µM, read-out: THP % Inhibition @ 3µM

Row | SMILES | inhibition at 3 µM [1] [%] | inhibition at 3 µM [2] [%]
1 | CC#CCOc1ccc(S(=O)(=O)N(CCN2CCOCC2)CC(=O)NO)cc1 [Example 124, 2-[{[4-(But-2-ynyloxy)phenyl]sulfonyl}(2-morpholin-4-ylethyl)amino]-N-hydroxyacetamide hydrochloride] | 24 | 
2 | CC1(C)SCCN(S(=O)(=O)c2ccc(OCC#Cc3ccccc3)cc2)[C@H]1C(=O)NO [Example 254, (3S)-N-Hydroxy-2,2-dimethyl-4-({4-[(3-phenyl-2-propynyl)oxy]phenyl}sulfonyl)-3-thiomorpholine carboxamide] | 77 | 
3 | CC#CCOc1ccc(S(=O)(=O)N2C[C@H](CC(=O)OC(C)(C)C)SC(C)(C)[C@@H]2C(=O)NO)cc1 [Example 277, tert-Butyl{(2S,5S)-4-{[4-(2-butynyloxy)phenyl]sulfonyl}-5-[(hydroxyamino)carbonyl]-6,6-dimethylthiomorpholinyl}acetate] |  | 69
4 | CC#CCOc1ccc(S(=O)(=O)N(C)C(C(=O)NO)c2ccc(OCCCNC(=O)Nc3ccccc3)cc2)cc1 (centres unmarked) [Example 198, 2-(4-{3-[(Anilinocarbonyl)amino]propoxy}phenyl)-2-[{[4-(2-butynyloxy)phenyl]sulfonyl}(methyl)amino]-N-hydroxyacetamide] | 92 | 
5 | CCCCC#CCOc1ccc(S(=O)(=O)N2CCSC(C)(C)C2C(=O)NO)cc1 (centres unmarked) [Example 40, 4-(4-Hept-2-ynyloxy-benzenesulfonyl)-2,2-dimethyl-thiomorpholine-3-carboxylic acid hydroxyamide] | 82 | 
6 | CC#CCOc1ccc(S(=O)(=O)N2CCN(C(=O)CC)CC2C(=O)NO)cc1 (centres unmarked) [Example 225, 1-(4-But-2-ynyloxy-benzenesulfonyl)-4-propionyl-piperazine-2-carboxylic acid hydroxyamide] | 76 | 
7 | CC#CCOc1ccc(S(=O)(=O)N(CCCCN(CC)CC)C(C(=O)NO)C(C)C)cc1 (centres unmarked) [Example 121, 2-{{[4-(2-Butynyloxy)phenyl]sulfonyl}[4-(diethylamino)butyl]amino}-N-hydroxy-3-methylbutanamide] | 65 | 
8 | CC#CCOc1ccc(S(=O)(=O)N(C)C(C(=O)NO)c2ccc(OCCCNC(=O)OC(C)(C)C)cc2)cc1 (centres unmarked) [Example 187, tert-Butyl 3-{4-[1-[{[4-(2-butynyloxy)phenyl]sulfonyl}(methyl)amino]-2-(hydroxyamino)-2-oxoethyl]phenoxy}propylcarbamate] | 91 | 
9 | CC1(C)SCCN(S(=O)(=O)c2ccc(OCC#CCF)cc2)[C@H]1C(=O)NO [Example 264, (3S)-4-({4-[(4-Fluoro-2-butynyl)oxy]phenyl}sulfonyl)-N-hydroxy-2,2-dimethyl-3-thiomorpholine carboxamide] | 94 | 
10 | CC#CCOc1ccc(S(=O)(=O)N2C[C@H](CC(N)=O)SC(C)(C)[C@@H]2C(=O)NO)cc1 [Example 280, (3S,6S)-6-(2-Amino-2-oxoethyl)-4-{[4-(2-butynyloxy)phenyl]sulfonyl}-N-hydroxy-2,2-dimethyl-3-thiomorpholinecarboxamide] |  | 91
11 | CC#CCOc1ccc(S(=O)(=O)N2CCN(C(=O)C3(C)COC(C)(C)OC3)CC2C(=O)NO)cc1 (centres unmarked) [Example 231, 1-{[4-(2-Butynyloxy)phenyl]sulfonyl}-N-hydroxy-4-[(2,2,5-trimethyl-1,3-dioxan-5-yl)carbonyl)-2-piperazinecarboxamide] | 73 | 
12 | CC1(C)SCCN(S(=O)(=O)c2ccc(OCC#CCCO)cc2)C1C(=O)NO (centres unmarked) [Example 244, N-Hydroxy-4-({4-[(5-hydroxy-2-pentynyl)oxy]phenyl}sulfonyl)-2,2-dimethyl-3-thiomorpholine carboxamide] | 57 | 
13 | CC#CCOc1ccc(S(=O)(=O)N2CCSCC2C(=O)NO)cc1 (centres unmarked) [Example 239] | 84 | 
14 | CC1(C)SCCN(S(=O)(=O)c2ccc(OCC#CCCN)cc2)C1C(=O)NO (centres unmarked) [Example 246, 4-({4-[(5-Amino-2-pentynyl)oxy]phenyl}sulfonyl)-N-hydroxy-2,2-dimethyl-3-thiomorpholine carboxamide] | 4 | 
15 | CC1(C)SCCN(S(=O)(=O)c2ccc(OCC#CCN)cc2)C1C(=O)NO (centres unmarked) [Example 265, 4-({4-[(4-Amino-2-butynyl)oxy]phenyl}sulfonyl)-N-hydroxy-2,2-dimethyl-3-thiomorpholine carboxamide] | 40 | 
16 | CC#CCOc1ccc(S(=O)(=O)N2C[C@H](CC(=O)N3CCOCC3)SC(C)(C)[C@@H]2C(=O)NO)cc1 [Example 282, (3S,6S)-4-{[4-(2-Butynyloxy)phenyl]sulfonyl}-N-hydroxy-2,2-dimethyl-6-[2-(4-morpholinyl)-2-oxoethyl]-3-thiomorpholinecarboxamide] |  | 91
17 | CC#CCOc1ccc(S(=O)(=O)N2CCN(C(=O)C(C)(CO)CO)CC2C(=O)NO)cc1 (centres unmarked) [Example 232, 1-{[4-(2-Butynyloxy)phenyl]sulfonyl}-N-hydroxy-4-[3-hydroxy-2-(hydroxymethyl)-2-methylpropanoyl]-2-piperazinecarboxamide] | 72 | 
18 | CC#CCOc1ccc(S(=O)(=O)N(C)C(C(=O)NO)C(C)(C)SCCN2CCN(C)CC2)cc1 (centres unmarked) [Example 141] | 86 | 

Row | SMILES | inhibition at 3 µM [1] [%] | inhibition at 3 µM [2] [%]
19 | CC#CCOc1ccc(S(=O)(=O)N(CC#CCN2CCN(C)CC2)C(C(=O)NO)C(C)C)cc1 (centres unmarked) [Example 125, 2-{{[4-(2-Butynyloxy)phenyl]sulfonyl}[4-(4-methyl-1-piperazinyl)-2-butynyl]amino}-N-hydroxy-3-methylbutanamide] | 72 | 
20 | CC#CCOc1ccc(S(=O)(=O)N[C@@H](C(=O)NO)c2ccc(OCCN)cc2)cc1 [Example 200, (2R)-2-[4-(2-Aminoethoxy)phenyl]-2-({[4-(2-butynyloxy)phenyl]sulfonyl}amino)-N-hydroxyethanamide] | 78 | 
21 | CC(C)(C)OC(=O)NCCCCC#CCOc1ccc(S(=O)(=O)N2CCSC(C)(C)[C@@H]2C(=O)NO)cc1 [Example 252, tert-Butyl 7-[4-({(3S)-3-[(hydroxyamino)carbonyl]-2,2-dimethylthiomorpholinyl}sulfonyl)phenoxy]-5-heptynylcarbamate] | 70 | 
22 | CC#CCOc1ccc(S(=O)(=O)N2CCSC3(CCN(Cc4ccccc4)CC3)C2C(=O)NO)cc1 (centres unmarked) [Example 241, 9-Benzyl-4-{[4-(2-butynyloxy)phenyl]sulfonyl}-N-hydroxy-1-thia-4,9-diazaspiro[5.5]undecane-5-carboxamide] | 94 | 
23 | CC#CCOc1ccc(S(=O)(=O)N2C[C@H](CC(=O)N(C)C)SC(C)(C)[C@@H]2C(=O)NO)cc1 [Example 281, (3S,6S)-4-{[4-(2-Butynyloxy)phenyl]sulfonyl}-6-[2-(dimethylamino)-2-oxoethyl]-N-hydroxy-2,2-dimethyl-3-thiomorpholinecarboxamide] |  | 76
24 | CC#CCOc1ccc(S(=O)(=O)N2CCN(C(=O)N(C)c3ccccc3)CC2C(=O)NO)cc1 (centres unmarked) [Example 220, 4-(4-But-2-ynyloxy-benzenesulfonyl)-piperazine-1,3-dicarboxylic acid 3-hydroxyamide 1-(methyl-phenyl-amide)] | 60 | 
25 | CC#CCOc1ccc(S(=O)(=O)N(Cc2cccnc2)[C@@H](C(=O)NO)C2CCCCC2)cc1 [Example 116, 2-[(4-But-2-ynyloay-benzenesulfonyl)-pyridin-3-ylmethyl-amino]-2-cyclohexyl-N-hydroxy-acetamide] | 75 | 
26 | CC#CCOc1ccc(S(=O)(=O)N(Cc2cccnc2)C(C(=O)NO)C(C)C)cc1 (centres unmarked) [Example 114, 2-[(4-But-2-ynyloxy-benzenesulfonyl)-pyridin-3-ylmethyl-amino]-N-hydroxy-3-methyl-butyramide] | 75 | 
27 | CC#CCOc1ccc(S(=O)(=O)N(C)C(C(=O)NO)C(C)(C)SC)cc1 (centres unmarked) [Example 149, 2-[(4-But-2-ynyloxy-benenesulfonyl)-methyl-amino]-N-hydroxy-3-methyl-3-methylsulfanyl-butyramide] | 88 | 
28 | CC#CCOc1ccc(S(=O)(=O)N2CCCN(C(=O)c3ccccc3)CC2C(=O)NO)cc1 (centres unmarked) [Example 49, 4-Benzoyl-1-(4-but-2-ynyloxy-benzenesulfonyl)-[1,4]diazepane-2-carboxylic acid hydroxyamide] |  | 32
29 | CC#CCOc1ccc(S(=O)(=O)N2CCN(C(=O)CNC(=O)OC(C)(C)C)CC2C(=O)NO)cc1 (centres unmarked) [Example 229, {2-[4-(4-But-2-ynyloxy-bemenesulfonyl)-3-hydroxycarbamoyl-piperazin-1-yl]-2-oxo-ethyl}-carbamic acid tert-butyl ester] | 85 | 
30 | CC#CCOc1ccc(S(=O)(=O)N(C)C(C(=O)NO)c2ccc(OCCN)cc2)cc1 (centres unmarked) [Example 181, 2-[4-(2-Aminoethoxy)phenyl]-2-[{[4-(2-butynyloxy)phenyl]sulfonyl}(methyl)amino]-N-hydroxyacetamide] | 92 | 
31 | CC#CCOc1ccc(S(=O)(=O)N(CC)C(C(=O)NO)C(C)C)cc1 (centres unmarked) [Example 108, 2-[(4-But-2-ynyloxy-benzenesulfonyl)-ethyl-amino]-N-hydroxy-3-methyl-butyramide] | 76 | 
32 | CC#CCOc1ccc(S(=O)(=O)N2C[C@H](CC(=O)O)SC(C)(C)[C@@H]2C(=O)NO)cc1 [Example 278, {(2S,5S)-4-{[4-(2-Butynyloxy)phenyl]sulfonyl}-5-[(hydroxyamino)carbonyl]-6,6-dimethylthiomorpholinyl}acetic acid] |  | 89
33 | CC#CCOc1ccc(S(=O)(=O)N(CC2CC2)C(C(=O)NO)C(C)C)cc1 (centres unmarked) [Example 112, 2-[(4-But-2-ynyloxy-benzenesulfonyl)-cyclopropylmethyl-amino]-N-hydroxy-3-methyl-butyramide] | 50 | 
34 | CC#CCOc1ccc(S(=O)(=O)N2[C@@H](C(=O)NO)C(C)(C)SC[C@@H]2C)cc1 [Example 270, (3S,5S)-4-{[4-(2-Butynyloxy)phenyl]sulfonyl}-N-hydroxy-2,2,5-trimethyl-3-thiomorpholinecarboxamide] |  | 62
35 | CC1(C)SCCN(S(=O)(=O)c2ccc(OCC#CCCCN)cc2)[C@H]1C(=O)NO [Example 251, (3S)-4-({4-[(6-Amino-2-hexynyl)oxy]phenyl}sulfonyl)-N-hydroxy-2,2-dimethyl-3-thiomorpholine carboxamide] | 22 | 
